The supplement of paper PMC13380429

Legend:
Caco-2 [1] = assay: relative viability EC50 (midpoint between 100% and the lowest measured viability); higher = less toxic; details: 72 h
Vero E6 [2] = assay: as above; details: 72 h
HepG2 [3] = assay: as above; details: 72 h
Calu-3 [4] = assay: as above; details: 72 h
Caco-2 [5] = assay: drug sensitivity score (DSS) for viability; higher = more toxic; extreme values may be limits of the assay; details: 72 h
Vero E6 [6] = assay: as above; details: 72 h
HepG2 [7] = assay: as above; details: 72 h
Calu-3 [8] = assay: as above; details: 72 h
[9] = system: A549-ACE2 infected with SARS-CoV-2; assay: morphology score (similarity to uninfected cells); higher = more like uninfected cells; details: 24 h
A549-ACE2 = assay: drug-induced phospholipidosis relative to tamoxifen; higher = more phospholipidosis
[10] = system: A549-ACE2 infected with SARS-CoV-2; assay: SARS-CoV-2 infection rate relative to DMSO; higher = more infection; details: 24 h
[11] = system: A549-ACE2 infected with SARS-CoV-2; assay: cell count relative to DMSO; higher = less toxic; details: 24 h
Caco-2 [12] = assay: cell viability relative to DMSO; higher = less toxic; details: 72 h
Vero E6 [13] = assay: as above; details: 72 h
HepG2 [14] = assay: as above; details: 72 h
Calu-3 [15] = assay: as above; details: 72 h
U2OS [16] = assay: relative viability EC50 (midpoint between 100% and the lowest measured viability); higher = less toxic; details: 72 h
U2OS [17] = assay: drug sensitivity score (DSS) for viability; higher = more toxic; extreme values may be limits of the assay; details: 72 h
U2OS [18] = assay: cell viability relative to DMSO; higher = less toxic; details: 72 h

CC(=O)N(O)[C@@H]1c2cc(C#N)ccc2OC(C)(C)[C@H]1O
relative viability EC50 (Caco-2 [1]): > 10 µM | relative viability EC50 (Vero E6 [2]): > 10 µM | relative viability EC50 (HepG2 [3]): > 10 µM | relative viability EC50 (Calu-3 [4]): > 10 µM | drug sensitivity score (Caco-2 [5]): 0 | drug sensitivity score (Vero E6 [6]): 0 | drug sensitivity score (HepG2 [7]): 0 | drug sensitivity score (Calu-3 [8]): 0 | morphology score ([9]; 0.3 µM): 0.26 | morphology score ([9]; 3 µM): 0.56 | morphology score ([9]; 10 µM): 0.81 | morphology score ([9]; 30 µM): 0.82 | drug-induced phospholipidosis (A549-ACE2; 0.3 µM, 24 h): 5.83% | drug-induced phospholipidosis (A549-ACE2; 0.3 µM, 48 h): 5.86% | drug-induced phospholipidosis (A549-ACE2; 0.3 µM, 72 h): 1.36% | drug-induced phospholipidosis (A549-ACE2; 0.833333 µM, 24 h): -1.4% | drug-induced phospholipidosis (A549-ACE2; 0.833333 µM, 48 h): -0.55% | drug-induced phospholipidosis (A549-ACE2; 0.833333 µM, 72 h): -4.06% | drug-induced phospholipidosis (A549-ACE2; 3.33333 µM, 24 h): -3.17% | drug-induced phospholipidosis (A549-ACE2; 3.33333 µM, 48 h): -0.21% | drug-induced phospholipidosis (A549-ACE2; 3.33333 µM, 72 h): -1.89% | drug-induced phospholipidosis (A549-ACE2; 6.66667 µM, 24 h): 0.06% | drug-induced phospholipidosis (A549-ACE2; 6.66667 µM, 48 h): -2.36% | drug-induced phospholipidosis (A549-ACE2; 6.66667 µM, 72 h): -2.87% | drug-induced phospholipidosis (A549-ACE2; 10 µM, 24 h): -1.41% | drug-induced phospholipidosis (A549-ACE2; 10 µM, 48 h): -0.04% | drug-induced phospholipidosis (A549-ACE2; 10 µM, 72 h): 0.112% | drug-induced phospholipidosis (A549-ACE2; 30 µM, 24 h): 3.58% | drug-induced phospholipidosis (A549-ACE2; 30 µM, 48 h): 3.92% | drug-induced phospholipidosis (A549-ACE2; 30 µM, 72 h): 6.24% | SARS-CoV-2 infection rate ([10]; 0.3 µM): 93% | SARS-CoV-2 infection rate ([10]; 3 µM): 77% | SARS-CoV-2 infection rate ([10]; 10 µM): 40% | SARS-CoV-2 infection rate ([10]; 30 µM): 36% | cell count ([11]; 0.3 µM): 105% | cell count ([11]; 3 µM): 107% | cell count ([11]; 10 µM): 119% | cell count ([11]; 30 µM): 116% | cell viability (Caco-2 [12]; 1 nM): 102% | cell viability (Caco-2 [12]; 10 nM): 86.8% | cell viability (Caco-2 [12]; 100 nM): 93.1% | cell viability (Caco-2 [12]; 1000 nM): 104% | cell viability (Caco-2 [12]; 10000 nM): 99.7% | cell viability (Vero E6 [13]; 1 nM): 94.6% | cell viability (Vero E6 [13]; 10 nM): 102% | cell viability (Vero E6 [13]; 100 nM): 96.5% | cell viability (Vero E6 [13]; 1000 nM): 102% | cell viability (Vero E6 [13]; 10000 nM): 95.6% | cell viability (HepG2 [14]; 1 nM): 101% | cell viability (HepG2 [14]; 10 nM): 108% | cell viability (HepG2 [14]; 100 nM): 95.8% | cell viability (HepG2 [14]; 1000 nM): 107% | cell viability (HepG2 [14]; 10000 nM): 105% | cell viability (Calu-3 [15]; 1 nM): 103% | cell viability (Calu-3 [15]; 10 nM): 90.8% | cell viability (Calu-3 [15]; 100 nM): 89.9% | cell viability (Calu-3 [15]; 1000 nM): 102% | cell viability (Calu-3 [15]; 10000 nM): 95.2%

CC(C)(C)Cn1c(N)nc2ccc(-c3[nH]c(C(C)(C)C)nc3-c3ccc(F)cc3)nc21
relative viability EC50 (U2OS [16]): > 10 µM | relative viability EC50 (HepG2 [3]): > 10 µM | drug sensitivity score (Caco-2 [5]): 2.9 | drug sensitivity score (Vero E6 [6]): 6.7 | drug sensitivity score (U2OS [17]): 1.2 | drug sensitivity score (HepG2 [7]): 0.6 | drug sensitivity score (Calu-3 [8]): 6.1 | morphology score ([9]; 0.3 µM): -0.39 | morphology score ([9]; 3 µM): 0.95 | morphology score ([9]; 10 µM): 0.96 | morphology score ([9]; 30 µM): 0.66 | drug-induced phospholipidosis (A549-ACE2; 0.3 µM, 24 h): -0.05% | drug-induced phospholipidosis (A549-ACE2; 0.3 µM, 48 h): 1.57% | drug-induced phospholipidosis (A549-ACE2; 0.3 µM, 72 h): 2.63% | drug-induced phospholipidosis (A549-ACE2; 0.833333 µM, 24 h): -0.99% | drug-induced phospholipidosis (A549-ACE2; 0.833333 µM, 48 h): 1.82% | drug-induced phospholipidosis (A549-ACE2; 0.833333 µM, 72 h): 3.92% | drug-induced phospholipidosis (A549-ACE2; 3.33333 µM, 24 h): 3.52% | drug-induced phospholipidosis (A549-ACE2; 3.33333 µM, 48 h): 5.06% | drug-induced phospholipidosis (A549-ACE2; 3.33333 µM, 72 h): 4.98% | drug-induced phospholipidosis (A549-ACE2; 6.66667 µM, 24 h): 13.5% | drug-induced phospholipidosis (A549-ACE2; 6.66667 µM, 48 h): 15.9% | drug-induced phospholipidosis (A549-ACE2; 6.66667 µM, 72 h): 13.2% | drug-induced phospholipidosis (A549-ACE2; 10 µM, 24 h): 24.9% | drug-induced phospholipidosis (A549-ACE2; 10 µM, 48 h): 25.2% | drug-induced phospholipidosis (A549-ACE2; 10 µM, 72 h): 27% | drug-induced phospholipidosis (A549-ACE2; 30 µM, 24 h): 60.6% | drug-induced phospholipidosis (A549-ACE2; 30 µM, 48 h): 57.1% | SARS-CoV-2 infection rate ([10]; 0.3 µM): 118% | SARS-CoV-2 infection rate ([10]; 3 µM): 8% | SARS-CoV-2 infection rate ([10]; 10 µM): 4% | SARS-CoV-2 infection rate ([10]; 30 µM): 8% | cell count ([11]; 0.3 µM): 87% | cell count ([11]; 3 µM): 129% | cell count ([11]; 10 µM): 124% | cell count ([11]; 30 µM): 100% | cell viability (Caco-2 [12]; 1 nM): 102% | cell viability (Caco-2 [12]; 10 nM): 98.1% | cell viability (Caco-2 [12]; 100 nM): 89.6% | cell viability (Caco-2 [12]; 1000 nM): 86.6% | cell viability (Caco-2 [12]; 10000 nM): 68% | cell viability (Vero E6 [13]; 1 nM): 93.2% | cell viability (Vero E6 [13]; 10 nM): 94.5% | cell viability (Vero E6 [13]; 100 nM): 83.6% | cell viability (Vero E6 [13]; 1000 nM): 72.4% | cell viability (Vero E6 [13]; 10000 nM): 58.7% | cell viability (U2OS [18]; 1 nM): 99% | cell viability (U2OS [18]; 10 nM): 98.4% | cell viability (U2OS [18]; 100 nM): 95.2% | cell viability (U2OS [18]; 1000 nM): 91.7% | cell viability (U2OS [18]; 10000 nM): 77.4% | cell viability (HepG2 [14]; 1 nM): 97% | cell viability (HepG2 [14]; 10 nM): 92.8% | cell viability (HepG2 [14]; 100 nM): 100% | cell viability (HepG2 [14]; 1000 nM): 94.9% | cell viability (HepG2 [14]; 10000 nM): 85.3% | cell viability (Calu-3 [15]; 1 nM): 107% | cell viability (Calu-3 [15]; 10 nM): 94.6% | cell viability (Calu-3 [15]; 100 nM): 85.5% | cell viability (Calu-3 [15]; 1000 nM): 75.3% | cell viability (Calu-3 [15]; 10000 nM): 54.1%
